# Measured values as given in patent publication US20060189535A1, “Combination treatment using exendins and thiazolidinediones” (priority 2002, published 2006).
# Columns and labels:
# male ZDF rat = assay: Four weeks combination treatment of overtly diabetic male ZDF rats; HbA1c and 24-hour glucose profiles; assay type: in vivo; conditions: thiazolidinedione insulin sensitizer x mg/kg oral once daily + Exendin-4(1-39) xx μg/kg s.c. twice daily
# Experimental: Synergistic effect of combining thiazolidinedione insulin sensitizer and exendin-4(1-39) on glucose and HbA1c, (glycosylated hemoglobin) in the male ZDF rat.
# Male ZDF rats were used in the study. Before treatment start, measurements of glucose and HbA1c were performed. All animals were overtly diabetic at the beginning of the study. Animals were allocated into the following 4 treatment groups: • Group 1: Vehicle-1+Vehicle-2 • Group 2: thiazolidinedione insulin sensitizer, x mg/kg+Vehicle-2 (n=10) • Group 3: Vehicle-1+exendin-4(1-39), xx μg/kg • Group 4: thiazolidinedione insulin sensitizer, x mg/kg+exendin-4(1-39), xx μtg/kg
# Thiazolidinedione insulin sensitizer and Vehicle-1 were administered by oral gavage once daily at approx. 07:30. Exendin-4(1-39) and Vehicle-2 were administered subcutaneously twice daily at approx. 07:30 and 14:30.
# After four weeks treatment, HbA1c was measured and 24-hour glucose profiles were assessed.
# The findings of group 1, 2, 3 and 4 are listed. Delta HbA1c values referring to the numerical difference between the measurement after treatment and the measurement before treatment are calculated. Glucose24 hAUc refers to the total area under the glucose concentration curve during the 24-hour period. A two-way analysis of variance are performed for each parameter and the significance of the interaction term evaluated.
# dogs = conditions: injected into dogs; cited from earlier work
substance,measurement,setting,value
Exendin-4(1-39),"effect on 24-hour glucose profiles (Glucose 24h AUC, two-way ANOVA interaction term)",male ZDF rat,synergistic (greater than additive) effects
same,"effect on HbA1c (delta HbA1c, two-way ANOVA interaction term)",male ZDF rat,synergistic (greater than additive) effects
same,insulin release and blood glucose level,dogs,stimulate insulin release and ensuing lowering of the blood glucose level
